{
  "source": "patent US20230172897A1",
  "about": "“METHODS OF TREATING BREAST CANCERS WITH SELECTIVE ANDROGEN RECEPTOR MODULATORS AND ADDITIONAL THERAPEUTIC AGENTS” (VERU, INC., priority 2021, published 2023)",
  "key": {"[1]": {"system": "BR-0001 AR-positive TNBC tumor", "test": "BR-0001 TNBC patient tumor xenograft in NSG mice", "type": "in vivo", "description": "Xenograft experiment. NSG mice obtained from JAX labs were housed with five animals per cage and were allowed free access to tap water and commercial rat chow (Harlan Teklad 22/5 rodent diet—8640). During the course of the study, the animals were maintained on a 12 hr light:dark cycle. Animals were anesthetized and BR-0001 TNBC fragments of 1 mm^3 (approximately) were implanted subcutaneously in NSG mice. […] Tumor volume was measured thrice weekly. Tumor volume was calculated using the formula length×width×width×0.5236. Once tumors reached greater than 1500-2000 mm^3, animals were sacrificed and tumors weighted and stored for various analysis. Two regions of the same BR-0001 tumor, an AR-positive TNBC xenograft, were immunohistochemically stained with AR antibody (AR N20 from SCBT) (FIGS. 26A and 26B) and compared to an AR-negative (FIG. 26C) TNBC as a negative control. […] The tumor xenograft efficacy experimental results are provided in 27A-27C, with FIGS. 27A and 27B being replicate experiments."}, "[2]": {"system": "MDA-MB-231 triple negative breast cancer cells", "test": "SRB cell viability, MDA-MB-231 cells infected with adenovirus containing LacZ or AR", "type": "cell-based", "description": "The SRB assay was used to determine cell number during cytotoxocity experiments. The following protocol was used: • 1. Cells were detached with 0.25% trypsin. • 2. Experimental cultures were cultured in 96-well microtiter plates (200 uL growth medium per well; 1,000-200,000 cells per well). • 3. Cultures were fixed with 50 uL 50% TCA (4° C.). (see cell fixation protocol for details). • 4. Fixed cells were stained with 50 uL 0.4% (wt/vol) SRB in 1% acetic acid for 10 minutes. • 5. SRB was removed and the cultures were quickly* rinsed 5 times with 1% acetic acid to remove unbound dye.** • 6. Cultures were air-dried overnight until there was no visible moisture. • 7. The cellular protein-bound SRB was dissolved with 200 uL unbuffered Tris base (10 mM, pH 10.5) for 30 minutes on a rocking platform shaker. • 8. Absorbance was read at 540 nm. * quickly performing rinsing process was to prevent desorption of protein-bound SRB ** completely removed residual wash solution by sharply flicking plates over sink.\nThe following protocol was used for fixing cells: • a. 50 uL of 50% TCA (4° C.) was gently layered on the top of growth medium in each well to make a final TCA concentration of 10%. • b. Cultures were incubated at 4° C. for 1 hour. • c. Cultures were washed 5 times with tap water to remove TCA, growth medium, low-molecular-weight metabolites, and serum protein. • d. Plates were air-dried until there was no visible moisture.\nCells were treated in charcoal stripped FBS (FIGS. 4A, 4C, 4E, 4G, 4I, 4K, 4M and 4O) or full serum (FIGS. 4B, 4D, 4F, 4H, 4J, 4L, 4N and 4P) for 3 days, fixed and stained with […] (SRB) to measure cell viability. Anti-proliferative IC50 values were calculated in breast cancer cells and compared to transactivation values, i.e., EC50 (agonists) and IC50 (antagonists) values, generated in HEK-293 cells."}, "GR": {"target": "T1, GR (Rattus norvegicus, UniProt P06536)", "T1 construct": "expressed in transfected cells", "T1 sequence (P06536 whole entry)": "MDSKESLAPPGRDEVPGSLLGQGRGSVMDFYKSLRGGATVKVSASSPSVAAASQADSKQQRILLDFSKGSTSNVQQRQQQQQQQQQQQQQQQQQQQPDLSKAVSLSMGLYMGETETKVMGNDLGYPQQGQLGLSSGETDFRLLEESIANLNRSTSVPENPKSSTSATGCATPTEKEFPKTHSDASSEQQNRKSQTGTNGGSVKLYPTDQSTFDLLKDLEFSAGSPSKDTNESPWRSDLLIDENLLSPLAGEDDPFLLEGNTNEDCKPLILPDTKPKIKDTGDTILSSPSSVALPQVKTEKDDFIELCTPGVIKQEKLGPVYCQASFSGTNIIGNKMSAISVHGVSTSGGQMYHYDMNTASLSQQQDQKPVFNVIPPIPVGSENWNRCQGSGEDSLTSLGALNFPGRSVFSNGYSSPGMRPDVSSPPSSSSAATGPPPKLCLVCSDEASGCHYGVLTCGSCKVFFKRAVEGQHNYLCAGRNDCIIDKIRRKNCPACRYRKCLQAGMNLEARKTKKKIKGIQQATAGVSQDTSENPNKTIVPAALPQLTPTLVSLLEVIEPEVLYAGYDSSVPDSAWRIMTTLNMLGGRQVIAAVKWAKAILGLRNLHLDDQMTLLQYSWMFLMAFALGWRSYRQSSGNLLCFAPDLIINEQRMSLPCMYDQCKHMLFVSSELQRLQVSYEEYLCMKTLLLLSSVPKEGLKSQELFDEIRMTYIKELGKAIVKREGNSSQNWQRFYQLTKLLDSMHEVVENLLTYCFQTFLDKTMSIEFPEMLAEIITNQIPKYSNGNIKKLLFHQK", "test": "Transcriptional activation (luciferase) in HEK-293 cells", "type": "cell-based", "description": "(§1) Rat GR, MR, PR, ER-α and ER-β were individually cloned into a pCR3.1 vector backbone. Sequencing was performed to verify the absence of any mutations. HEK-293 cells were plated at 90,000 cells per well of a 24 well plate in Dulbecco's Minimal Essential Media supplemented with 5% charcoal-stripped FBS. […] Luciferase assays were performed 48 h after transfection. Transcriptional activation values are represented as firefly luciferase normalized to renilla luciferase."}, "ER-α": {"target": "T2, ER-α (Rattus norvegicus, UniProt P06211)", "T2 construct": "expressed in transfected cells", "T2 sequence (P06211 whole entry)": "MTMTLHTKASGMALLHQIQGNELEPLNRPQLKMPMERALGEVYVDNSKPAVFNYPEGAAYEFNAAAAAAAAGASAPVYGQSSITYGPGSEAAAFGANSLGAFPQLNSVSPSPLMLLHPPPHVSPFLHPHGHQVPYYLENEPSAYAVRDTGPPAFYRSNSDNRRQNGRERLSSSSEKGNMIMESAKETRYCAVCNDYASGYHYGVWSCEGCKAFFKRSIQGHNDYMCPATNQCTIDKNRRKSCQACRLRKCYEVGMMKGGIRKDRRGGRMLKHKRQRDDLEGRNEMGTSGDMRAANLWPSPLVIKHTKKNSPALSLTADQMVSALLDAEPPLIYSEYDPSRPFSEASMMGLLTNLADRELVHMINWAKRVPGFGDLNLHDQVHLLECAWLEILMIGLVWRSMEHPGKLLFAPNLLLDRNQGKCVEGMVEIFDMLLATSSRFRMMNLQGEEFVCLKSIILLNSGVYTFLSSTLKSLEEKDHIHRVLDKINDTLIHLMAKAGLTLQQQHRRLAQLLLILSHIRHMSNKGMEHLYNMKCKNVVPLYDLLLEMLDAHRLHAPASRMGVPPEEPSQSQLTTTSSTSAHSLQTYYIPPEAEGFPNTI", "test": "Transcriptional activation (luciferase) in HEK-293 cells", "type": "cell-based", "description": "as §1"}, "MR": {"target": "T3, MR (Rattus norvegicus, UniProt P22199)", "T3 construct": "expressed in transfected cells", "T3 sequence (P22199 1-981)": "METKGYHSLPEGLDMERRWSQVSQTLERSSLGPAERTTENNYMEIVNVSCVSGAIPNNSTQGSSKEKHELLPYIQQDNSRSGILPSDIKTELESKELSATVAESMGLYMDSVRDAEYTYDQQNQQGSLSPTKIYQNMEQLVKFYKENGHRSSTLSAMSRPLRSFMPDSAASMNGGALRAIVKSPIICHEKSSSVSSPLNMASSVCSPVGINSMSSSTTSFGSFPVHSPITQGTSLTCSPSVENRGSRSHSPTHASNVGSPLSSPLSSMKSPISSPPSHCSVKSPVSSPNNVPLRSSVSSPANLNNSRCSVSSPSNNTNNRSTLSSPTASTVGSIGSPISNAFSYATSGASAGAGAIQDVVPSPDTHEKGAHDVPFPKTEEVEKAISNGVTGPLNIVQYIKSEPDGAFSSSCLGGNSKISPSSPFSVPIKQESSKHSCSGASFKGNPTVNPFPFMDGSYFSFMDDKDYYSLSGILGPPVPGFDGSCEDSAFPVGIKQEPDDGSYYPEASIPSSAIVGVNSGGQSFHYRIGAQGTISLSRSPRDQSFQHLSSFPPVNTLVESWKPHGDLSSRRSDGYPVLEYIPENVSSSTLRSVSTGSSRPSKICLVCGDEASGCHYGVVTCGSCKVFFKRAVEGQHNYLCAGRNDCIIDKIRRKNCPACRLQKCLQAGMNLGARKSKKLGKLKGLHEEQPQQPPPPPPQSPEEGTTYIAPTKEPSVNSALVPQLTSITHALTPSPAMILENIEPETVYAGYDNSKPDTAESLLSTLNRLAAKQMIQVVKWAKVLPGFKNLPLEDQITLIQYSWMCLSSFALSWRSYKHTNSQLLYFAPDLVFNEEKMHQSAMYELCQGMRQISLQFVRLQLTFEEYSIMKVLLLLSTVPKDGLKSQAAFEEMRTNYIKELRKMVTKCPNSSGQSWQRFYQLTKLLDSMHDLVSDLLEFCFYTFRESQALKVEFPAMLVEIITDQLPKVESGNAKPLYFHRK", "test": "Transcriptional activation (luciferase) in HEK-293 cells", "type": "cell-based", "description": "as §1"}, "[3]": {"settings": "agonist mode, all tested concentrations"}},
  "data": [
    {"smiles": "C[C@](O)(COc1ccc(C#N)cc1)C(=O)Nc1ccc(C#N)c(C(F)(F)F)c1", "note": "[Formula IX, (S)—N-(4-Cyano-3-(trifluoromethyl)phenyl)-3-(4-cyanophenoxy)-2-hydroxy-2-methylpropanamide]", "values": [
      {"measurement": "BR-0001 tumor growth", "setting": "[1]; 10 mg/kg/day orally", "result": "some tumor growth inhibition"},
      {"measurement": "reduction of tumor weight", "setting": "[1]; 10 mg/kg/day, experiment 2", "result": "~40", "unit": "%"},
      {"measurement": "reduction in Ki-67 staining", "setting": "[1]; 2 weeks of treatment", "result": "approximately 50%"},
      {"measurement": "growth inhibitory effect on MDA-MB-231 cells in the presence of bicalutamide", "setting": "[2]; AR cells, 10 μM bicalutamide", "result": "weakened growth inhibitory effects"},
      {"measurement": "MDA-MB-231 cell growth", "setting": "[2]; cells with AR, 3 days", "result": "inhibited"}
    ]},
    {"smiles": "C[C@](O)(COc1ccc(C#N)cc1)C(=O)Nc1ccc(C#N)c(Cl)c1", "note": "[Formula VIII, (S)—N-(3-chloro-4-cyanophenyl)-3-(4-cyanophenoxy)-2-hydroxy-2-methylpropanamide]", "values": [
      {"measurement": "GR-mediated transactivation", "setting": "GR; [3]", "result": "did not induce"},
      {"measurement": "dexamethasone-induced GR-mediated transactivation", "setting": "GR; antagonist mode", "result": "failed to alter"},
      {"measurement": "ER-α-mediated transactivation", "setting": "ER-α; agonist mode, highest tested concentration 1 μM", "result": "failed to activate"},
      {"measurement": "17β-estradiol-induced ER-α activity", "setting": "ER-α; antagonist mode", "result": "failed to alter"},
      {"measurement": "MR-mediated transactivation", "setting": "MR; [3]", "result": "did not induce"},
      {"measurement": "aldosterone-induced MR-mediated transactivation", "setting": "MR; antagonist mode", "result": "failed to alter"}
    ]}
  ]
}
